Results taken from US20240383901A1, “SUBSTITUTED PYRROLO[2,3-D]PYRIMIDINES, THEIR PREPARATION AND THEIR THERAPEUTIC APPLICATION” (SANOFI, priority 2021, published 2024).

Columns and labels:
[1] = molecular target: T1, full-length LRRK2 G2019S (Homo sapiens, UniProt Q5S007, G2019S); assay: LRRK2-G2019S kinase activity assay (Lanthascreen TR-FRET); format: biochemical; conditions: 1.1 mM ATP
T1 construct: DYKDDDDK (FLAG)
Protocol: (§1) The potency of compounds was evaluated in vitro using the Lanthascreen® technology (ThermoFisher Scientific).
(§2) In a typical experiment, the reaction assay buffer contains 50 mM Tris pH8.2, 1 mM EGTA, 2.5 mM MgCl2, 0.05% Triton X100, 0.15% BSA and 1 mM DTT. The detection of the assay is performed using 1 nM Terbium labeled anti-phospho-LRRKtide (ThermoFisher Scientific) diluted in a TR-FRET buffer (ThermoFisher Scientific).
(§3) The experimental procedure was performed with Greiner small volume® 384-well. […] The working solution of compounds was prepared in a separate Greiner microplate.
(§4) The kinase reaction was initiated by addition of the ATP/LRRKtide substrate mix diluted in the reaction assay buffer. The reaction mix was incubated for at least 10 minutes at room temperature (initial velocity conditions). Reaction was stopped by addition of Terbium labeled anti-phospho-LRRKtide diluted into the detection buffer supplemented with EDTA (ThermoFisher Scientific). Plates are incubated for at least 30 minutes at room temperature and read on an Envision™ multimode plate reader (PerkinElmer) with LanthaScreen™. The TR-FRET 520:495 nm emission ratio was calculated and used to determine the IC50 value from a dose response curve fit to the 4-parameter logistic equation. The activity with respect to LRRK2 kinase in this test is given by the concentration which inhibits 50% of the LRRK2 activity (or IC50) in nM.

[2] = molecular target: T2, full-length LRRK2 wild type (Homo sapiens, UniProt Q5S007); assay: LRRK2 WT assay (Assay A, Lanthascreen TR-FRET, 500 uM ATP); format: biochemical; conditions: Assay A (values without *)
T2 construct: DYDDDDK tagged full-length LRRK2 wild type is used
T2 sequence (Q5S007 whole entry): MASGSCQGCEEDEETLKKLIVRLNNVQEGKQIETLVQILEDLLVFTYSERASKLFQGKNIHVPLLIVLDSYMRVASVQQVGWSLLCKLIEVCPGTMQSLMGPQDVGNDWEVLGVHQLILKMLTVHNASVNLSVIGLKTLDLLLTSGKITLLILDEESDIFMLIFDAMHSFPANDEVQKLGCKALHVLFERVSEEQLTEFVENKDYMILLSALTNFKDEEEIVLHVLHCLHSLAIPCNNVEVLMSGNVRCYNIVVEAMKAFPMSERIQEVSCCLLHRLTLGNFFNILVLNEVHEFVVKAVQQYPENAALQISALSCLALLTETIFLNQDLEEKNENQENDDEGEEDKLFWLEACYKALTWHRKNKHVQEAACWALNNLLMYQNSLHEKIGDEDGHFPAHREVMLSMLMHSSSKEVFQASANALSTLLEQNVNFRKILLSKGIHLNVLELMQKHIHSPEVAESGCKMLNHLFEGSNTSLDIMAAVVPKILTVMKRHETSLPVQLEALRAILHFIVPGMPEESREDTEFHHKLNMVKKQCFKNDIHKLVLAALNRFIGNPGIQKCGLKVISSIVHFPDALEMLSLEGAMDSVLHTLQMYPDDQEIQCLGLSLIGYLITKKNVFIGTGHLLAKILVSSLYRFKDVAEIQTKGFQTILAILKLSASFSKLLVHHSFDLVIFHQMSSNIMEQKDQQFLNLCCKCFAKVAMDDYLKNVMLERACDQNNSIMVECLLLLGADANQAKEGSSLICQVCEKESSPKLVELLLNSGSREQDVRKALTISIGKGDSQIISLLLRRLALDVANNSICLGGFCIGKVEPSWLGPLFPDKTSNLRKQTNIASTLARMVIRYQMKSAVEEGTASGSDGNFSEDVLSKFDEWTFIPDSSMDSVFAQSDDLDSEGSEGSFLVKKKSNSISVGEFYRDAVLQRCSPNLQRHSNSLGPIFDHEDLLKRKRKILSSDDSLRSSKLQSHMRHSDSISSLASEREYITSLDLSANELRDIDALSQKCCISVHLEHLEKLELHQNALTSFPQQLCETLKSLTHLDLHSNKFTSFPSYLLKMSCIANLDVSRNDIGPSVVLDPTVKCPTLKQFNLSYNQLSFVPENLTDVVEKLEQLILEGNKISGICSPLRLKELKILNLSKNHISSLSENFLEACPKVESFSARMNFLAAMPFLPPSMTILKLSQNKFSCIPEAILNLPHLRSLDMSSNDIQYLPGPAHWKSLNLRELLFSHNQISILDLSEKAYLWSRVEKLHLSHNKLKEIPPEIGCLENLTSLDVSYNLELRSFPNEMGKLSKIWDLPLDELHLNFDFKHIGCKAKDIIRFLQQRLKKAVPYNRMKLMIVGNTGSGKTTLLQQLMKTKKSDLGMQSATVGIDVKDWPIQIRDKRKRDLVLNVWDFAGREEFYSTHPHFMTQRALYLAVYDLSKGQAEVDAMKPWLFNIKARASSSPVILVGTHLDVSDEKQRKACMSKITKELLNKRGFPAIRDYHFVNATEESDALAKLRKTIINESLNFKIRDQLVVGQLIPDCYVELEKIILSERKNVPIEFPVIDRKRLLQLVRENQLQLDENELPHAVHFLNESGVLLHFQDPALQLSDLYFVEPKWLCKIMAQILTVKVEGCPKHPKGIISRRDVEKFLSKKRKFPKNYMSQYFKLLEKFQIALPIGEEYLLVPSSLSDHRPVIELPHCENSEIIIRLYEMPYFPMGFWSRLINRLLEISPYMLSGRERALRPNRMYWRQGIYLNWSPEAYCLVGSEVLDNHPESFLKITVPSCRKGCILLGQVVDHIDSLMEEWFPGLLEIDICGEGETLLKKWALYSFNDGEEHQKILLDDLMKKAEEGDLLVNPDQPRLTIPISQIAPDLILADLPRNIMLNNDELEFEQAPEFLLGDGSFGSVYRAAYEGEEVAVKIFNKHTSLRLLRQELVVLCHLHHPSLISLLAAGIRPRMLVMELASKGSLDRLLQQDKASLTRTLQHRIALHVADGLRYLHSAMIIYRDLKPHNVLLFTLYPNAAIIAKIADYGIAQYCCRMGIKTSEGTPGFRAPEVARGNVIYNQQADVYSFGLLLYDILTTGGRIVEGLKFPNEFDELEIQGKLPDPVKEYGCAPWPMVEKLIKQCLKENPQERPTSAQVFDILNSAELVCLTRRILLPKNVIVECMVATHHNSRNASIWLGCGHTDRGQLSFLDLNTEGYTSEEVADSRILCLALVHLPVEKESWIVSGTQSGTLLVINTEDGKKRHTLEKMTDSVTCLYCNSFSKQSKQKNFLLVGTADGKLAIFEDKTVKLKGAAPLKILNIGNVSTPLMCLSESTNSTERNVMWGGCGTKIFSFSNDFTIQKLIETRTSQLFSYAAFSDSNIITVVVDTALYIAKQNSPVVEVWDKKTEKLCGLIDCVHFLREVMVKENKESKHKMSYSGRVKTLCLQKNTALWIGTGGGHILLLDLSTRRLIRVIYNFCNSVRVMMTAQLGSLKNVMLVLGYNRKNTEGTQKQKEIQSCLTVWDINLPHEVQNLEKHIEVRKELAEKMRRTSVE
Protocol: as §1, §2, §3, §4

T1 sequence (Q5S007 whole entry G2019S): as the sequence (Q5S007 whole entry) above, with G2019S counted along it

## C[C@@H]1COC[C@H]1Oc1nn(C)cc1Nc1ncc2cc(C#N)n([C@H]3COC[C@@H]3C)c2n1 (single isomer, unassigned) [Example 2]
[1]
  IC50: 5 nM
[2]
  IC50: 5 nM

## C[C@@H]1COC[C@H]1Oc1nn(C)cc1Nc1ncc2cc(C#N)n([C@H]3COC[C@@H]3C)c2n1 (single isomer, unassigned) [Example 3]
[1]
  IC50: 4 nM
[2]
  IC50: 5 nM

## CC(C(F)F)n1cc(Nc2ncc3cc(C#N)n([C@H]4COC[C@@H]4C)c3n2)c(OC2COC2)n1 (single isomer, unassigned) [Example 4]
[1]
  IC50: 1 nM
[2]
  IC50: 1 nM

## CC(C(F)F)n1cc(Nc2ncc3cc(C#N)n([C@H]4COC[C@@H]4C)c3n2)c(OC2COC2)n1 (single isomer, unassigned) [Example 5]
[1]
  IC50: 5 nM
[2]
  IC50: 4 nM

## C[C@@H]1OC[C@H]1Oc1nn(C)cc1Nc1ncc2cc(C#N)n([C@H]3COC[C@@H]3C)c2n1 (single isomer, unassigned) [Example 6]
[1]
  IC50: 4 nM
[2]
  IC50: 5 nM

## C[C@@H]1OC[C@H]1Oc1nn(C)cc1Nc1ncc2cc(C#N)n([C@H]3COC[C@@H]3C)c2n1 (single isomer, unassigned) [Example 7]
[1]
  IC50: 2 nM
[2]
  IC50: 2 nM

## CC(Oc1nn(C2COC2)cc1Nc1ncc2cc(C#N)n([C@H]3COC[C@@H]3C)c2n1)C(F)(F)F (single isomer, unassigned) [Example 10]
[1]
  IC50: 1 nM
[2]
  IC50: 1 nM

## CC(Oc1nn(C2COC2)cc1Nc1ncc2cc(C#N)n([C@H]3COC[C@@H]3C)c2n1)C(F)(F)F (single isomer, unassigned) [Example 11]
[1]
  IC50: 19 nM
[2]
  IC50: 27 nM

## CO[C@@H]1COC[C@H]1Oc1nn(C)cc1Nc1ncc2cc(C#N)n([C@H]3COC[C@@H]3C)c2n1 (single isomer, unassigned) [Example 12]
[1]
  IC50: 6 nM
[2]
  IC50: 8 nM

## CO[C@@H]1COC[C@H]1Oc1nn(C)cc1Nc1ncc2cc(C#N)n([C@H]3COC[C@@H]3C)c2n1 (single isomer, unassigned) [Example 13]
[1]
  IC50: 9 nM
[2]
  IC50: 13 nM

## CC(Oc1nn(C)cc1Nc1ncc2cc(C#N)n([C@H]3COC[C@@H]3C)c2n1)C(F)(F)F (single isomer, unassigned) [Example 21]
[1]
  IC50: 1 nM
[2]
  IC50: 1 nM

## CC(Oc1nn(C)cc1Nc1ncc2cc(C#N)n([C@H]3COC[C@@H]3C)c2n1)C(F)(F)F (single isomer, unassigned) [Example 22]
[1]
  IC50: 25 nM
[2]
  IC50: 30 nM

## [2H]C([2H])([2H])n1cc(Nc2ncc3cc(C#N)n([C@H]4COC[C@@H]4C)c3n2)c(O[C@H]2CO[C@H]2C)n1 (single isomer, unassigned) [Example 23]
[1]
  IC50: 8 nM
[2]
  IC50: 10 nM

## C[C@H]1COC[C@H]1n1c(C#N)cc2cnc(Nc3cn(C)nc3OC3COC3)nc21 (single isomer, unassigned) [Example 45, 2-((1-methyl-3-(oxetan-3-yloxy)-1 H-pyrazol-4-yl)amino)-7-((cis)-4-methyltetrahydrofuran-3-yl)-7H-pyrrolo[2,3-d]pyrimidine-6-carbonitrile]
[1]
  IC50: 35 nM
[2]
  IC50: 46 nM

## C[C@H]1COC[C@H]1n1c(C#N)cc2cnc(Nc3cn(C)nc3OC3COC3)nc21 (single isomer, unassigned) [Example 46, 2-((1-methyl-3-(oxetan-3-yloxy)-1 H-pyrazol-4-yl)amino)-7-((cis)-4-methyltetrahydrofuran-3-yl)-7H-pyrrolo[2,3-d]pyrimidine-6-carbonitrile]
[1]
  IC50: 413 nM
[2]
  IC50: 489 nM

## CO[C@H]1COC[C@H]1n1c(C#N)cc2cnc(Nc3cn(C(C)C#N)nc3OC(C)C)nc21 (single isomer, unassigned) [Example 56]
[1]
  IC50: 4 nM
[2]
  IC50: 7 nM

## C[C@@H]1OC[C@H]1n1c(C#N)cc2cnc(Nc3cn(C)nc3OC3COC3)nc21 (single isomer, unassigned) [Example 76, 7-[(trans)-2-methyloxetan-3-yl]-2-[[1-methyl-3-(oxetan-3-yloxy)pyrazol-4-yl]amino]pyrrolo[2,3-d]pyrimidine-6-carbonitrile]
[1]
  IC50: 200 nM
[2]
  IC50: 241 nM
